In ChEMBL document CHEMBL1201862, “PubChem BioAssay data set” (2004):
Activity calls are given as the source filed them.

Key:
[1] = target: FAD-linked sulfhydryl oxidase ALR (Homo sapiens, UniProt P55789); test: ALR-catalysed DTT oxidation blockers – biochemical, H2O2 detection, luminescence, cherry-pick, dose response (AID 493248)
[2] = target: T1, Sphingosine 1-phosphate receptor 2 (Homo sapiens, UniProt O95136); test: Dose Response Cell Based Assay for Agonists of the S1P2 Receptor. [Related pubchem assays: 729, 736, 843 ]; type: functional
[3] = rise of 4N DNA cells, HeLa – IC50, dose response (AID 1117351); type: functional, cell-based
[4] = rise of 2N DNA cells, HeLa – IC50, dose response (AID 1117349); type: functional, cell-based
[5] = NIH3T3 cell viability loss – ATP luminescence, mouse fibroblasts, counter-screen, dose response (AID 2010); type: functional, cell-based;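 note: cells exposed to compound for about 90 hours before reading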
Fatty acid synthase [6] = target: T2, Fatty acid synthase (Homo sapiens, UniProt P49327); test: inhibition of human FAS-TE enzyme activity – biochemical, endpoint fluorescence intensity, uHTS hits, dose response (AID 624327); type: functional;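 note: fluorescence from hydrolysis of an O-methyl fluorescein acyl ester substrate by the enzyme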
Fatty acid synthase [7] = target: T2, Fatty acid synthase; test: inhibition of human FAS-TE enzyme activity – biochemical, kinetic fluorescence intensity, dose response (AID 624326); type: functional;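 note: rate of fluorescence rise from hydrolysis of a fluorogenic O-methyl fluorescein ester substrate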
[8] = Trypanosoma cruzi growth suppression in host cells – NIH3T3 host cells, beta-gal luminescence, confirmation (AID 2044); type: functional, cell-based;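 note: intracellular parasites grown in NIH/3T3 mouse fibroblasts as host cells; luminescent beta-galactosidase reporter signal from transgenic T. cruzi replicating inside host cells; inhibitors lower the luminescence signal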
[9] = target: Dual specificity tyrosine-phosphorylation-regulated kinase 1A (Rattus norvegicus, UniProt Q63470); type: biochemical, Homo sapiens
[10] = Dd2 malaria parasite growth inhibition potency – SYBR Green, dry powder samples, dose response (AID 1159566); type: functional, cell-based;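 note: potency for growth inhibition with lower SYBR green DNA signal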
[11] = toxicity to human HepG2 hepatoma cells – cell-based, plate reader, dry powder samples, cytotoxicity control, dose response (AID 1159569); type: functional;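 note: inhibitor potency with signal falling toward the positive control level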
[12] = growth inhibition of yeast DHODH-expressing 3D7 parasites – SYBR Green, dry powder samples, dose response (AID 1159570); type: functional, cell-based;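 note: parasite growth measured after 72 hours of compound exposure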
[13] = growth inhibition of PfATP4-mutant resistant parasites – NITD609-resistant line, SYBR Green, dry powder, dose response (AID 1159571); type: functional, cell-based;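 note: parasites synchronized at ring stage by sorbitol before testing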
[14] = toxicity to human hepatoma HepG2 cells – cell-based, cherry-picked samples, cytotoxicity control, dose response (AID 1159577); type: functional
[15] = P. falciparum Dd2 growth inhibitors, dose response, SYBR Green, cherry-picked samples (AID 1159567); type: functional, cell-based
[16] = HPDE-C7 pancreatic duct cell viability loss – fluorescence, HTS (AID 430); type: functional, cell-based; conditions: Homo sapiens
Streptokinase A = target: T3, Streptokinase A (Streptococcus pyogenes serotype M1, UniProt P10520); test: viability-normalized secreted streptokinase activity reduction – plasminogen activation absorbance, OD405, dose response (AID 1914); type: functional, Streptococcus pyogenes M1 GAS;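 note: secreted streptokinase activity via plasminogen activation per viability signal from cell pellet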
T3 sequence (P10520 whole entry): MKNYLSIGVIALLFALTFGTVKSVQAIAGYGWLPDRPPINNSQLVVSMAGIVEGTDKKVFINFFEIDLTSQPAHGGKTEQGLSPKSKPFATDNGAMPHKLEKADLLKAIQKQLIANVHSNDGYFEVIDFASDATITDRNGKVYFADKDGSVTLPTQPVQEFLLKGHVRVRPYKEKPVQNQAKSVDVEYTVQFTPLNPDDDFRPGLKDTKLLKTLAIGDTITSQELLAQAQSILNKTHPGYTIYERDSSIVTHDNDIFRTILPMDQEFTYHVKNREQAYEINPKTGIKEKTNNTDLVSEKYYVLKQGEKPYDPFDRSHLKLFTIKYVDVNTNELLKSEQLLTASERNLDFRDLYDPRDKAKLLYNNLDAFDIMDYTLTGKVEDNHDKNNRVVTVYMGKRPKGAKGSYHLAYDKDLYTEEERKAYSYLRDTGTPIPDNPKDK

[17] = tested on: Streptococcus sp. 'group A'; test: Streptococcus pyogenes SK(-)GAS viability under kanamycin – luminescence, BacTiterGlo, confirmation, counter-screen for streptokinase expression inhibitor project, dose response (AID 1900); type: functional, organism-based
[18] = target: T1, Sphingosine 1-phosphate receptor 2; test: Dose Response Cell Based Assay for Antagonists of the S1P2 Receptor. [Related pubchem assays: 856, 736 ]; type: functional
[19] = viability loss of HPDE-C7K cells – cell-based, fluorescence, HTS, primary screen (AID 431); type: functional; conditions: Homo sapiens
Streptococcus = test: GAS UMAA2166 growth inhibition – luminescence, BacTiterGlo, counter-screen for streptokinase expression inhibitor project, dose response (AID 1915); type: functional, organism-based;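 note: potency for reduction of bacterial viability or growth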
NS3 = NS3 (Hepatitis C virus, UniProt A3EZJ3); test: PubChem AID 2173; parameters: species or system Hepacivirus hominis
[20] = M. tuberculosis H37Rv growth inhibitors, H37Rv strain (AID 1626); type: functional
[21] = target: Peroxisome proliferator-activated receptor gamma/Nuclear receptor coactivator 1 (Homo sapiens, UniProt P37231); type: functional;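 note: agonist potency as compounds enhance coactivator SRC-1 recruitment to PPARgamma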
[22] = target: Peroxisome proliferator-activated receptor gamma/Nuclear receptor coactivator 2 (Homo sapiens, UniProt P37231); type: functional;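 note: agonist potency for raising coactivator recruitment to the receptor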
[23] = target: Peroxisome proliferator-activated receptor gamma/Nuclear receptor coactivator 3 (Homo sapiens, UniProt P37231); type: functional;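 note: agonist potency for raising coactivator recruitment to the receptor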
[24] = target: T4, Endoribonuclease toxin MazF (Escherichia coli K-12, UniProt P0AE70); test: substrate-only fluorescence increase artefacts – biochemical, single-stranded RNase substrate, counter-screen for MazEF activator project, dose response (AID 588502); type: functional
T4 sequence (P0AE70 whole entry): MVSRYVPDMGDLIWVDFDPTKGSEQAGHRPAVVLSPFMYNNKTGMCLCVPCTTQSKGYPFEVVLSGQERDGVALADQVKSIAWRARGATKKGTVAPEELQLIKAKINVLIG

Ephrin type-A receptor 4 = Ephrin type-A receptor 4 (Mus musculus, UniProt Q03137); test: EphA4 ligand-binding antagonists – biochemical, colorimetric, mouse EphA4, primary screen (AID 689); type: functional
[25] = target: T5, Corticotropin-releasing factor receptor 2/Corticotropin-releasing factor-binding protein (Homo sapiens, UniProt P24387+Q13324); test: activators of CRF receptor 2 with binding protein – uHTS hits, confirmation (AID 602473); type: functional; conditions: read-out: EC50_Mean
T5 sequence (Q13324 whole entry): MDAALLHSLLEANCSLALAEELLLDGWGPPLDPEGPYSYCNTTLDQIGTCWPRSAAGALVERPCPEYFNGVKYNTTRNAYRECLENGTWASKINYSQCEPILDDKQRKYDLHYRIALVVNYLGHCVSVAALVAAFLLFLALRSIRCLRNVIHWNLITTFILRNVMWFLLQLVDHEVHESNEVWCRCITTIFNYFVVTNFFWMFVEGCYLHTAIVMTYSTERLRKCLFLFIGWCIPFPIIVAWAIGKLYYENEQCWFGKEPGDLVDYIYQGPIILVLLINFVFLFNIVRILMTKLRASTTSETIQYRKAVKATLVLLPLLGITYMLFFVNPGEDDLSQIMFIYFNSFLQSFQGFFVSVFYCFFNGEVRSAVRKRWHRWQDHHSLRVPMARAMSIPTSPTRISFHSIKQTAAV
T5 sequence (P24387 whole entry): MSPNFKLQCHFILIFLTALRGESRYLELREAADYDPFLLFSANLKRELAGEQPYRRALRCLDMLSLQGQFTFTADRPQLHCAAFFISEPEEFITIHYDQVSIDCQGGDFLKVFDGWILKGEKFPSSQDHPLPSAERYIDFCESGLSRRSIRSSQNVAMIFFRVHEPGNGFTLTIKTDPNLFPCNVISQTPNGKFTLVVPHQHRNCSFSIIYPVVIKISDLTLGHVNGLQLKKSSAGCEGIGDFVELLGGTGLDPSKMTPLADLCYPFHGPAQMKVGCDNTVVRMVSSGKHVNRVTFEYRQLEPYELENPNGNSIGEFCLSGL

[26] = target: T4, Endoribonuclease toxin MazF; test: activation of MazEF endoribonuclease cleavage – biochemical, fluorescence, single-stranded RNA substrate, uHTS hits, dose response (AID 588481); type: functional
[27] = target: T6, Aryl hydrocarbon receptor (Homo sapiens, UniProt P35869); test: Luminescence-based cell-based high throughput dose response assay for activators of the Aryl Hydrocarbon Receptor (AHR). [Related pubchem assays: 2796 (Primary screen (AHR activators in singlicate)), 2845 (Confirmation screen (AHR activators in triplicate)), 434939 (Counterscreen (PXR activators in triplicate)), 2804 (Summary (AHR activators))]; type: ADME
T6 sequence (P35869 whole entry): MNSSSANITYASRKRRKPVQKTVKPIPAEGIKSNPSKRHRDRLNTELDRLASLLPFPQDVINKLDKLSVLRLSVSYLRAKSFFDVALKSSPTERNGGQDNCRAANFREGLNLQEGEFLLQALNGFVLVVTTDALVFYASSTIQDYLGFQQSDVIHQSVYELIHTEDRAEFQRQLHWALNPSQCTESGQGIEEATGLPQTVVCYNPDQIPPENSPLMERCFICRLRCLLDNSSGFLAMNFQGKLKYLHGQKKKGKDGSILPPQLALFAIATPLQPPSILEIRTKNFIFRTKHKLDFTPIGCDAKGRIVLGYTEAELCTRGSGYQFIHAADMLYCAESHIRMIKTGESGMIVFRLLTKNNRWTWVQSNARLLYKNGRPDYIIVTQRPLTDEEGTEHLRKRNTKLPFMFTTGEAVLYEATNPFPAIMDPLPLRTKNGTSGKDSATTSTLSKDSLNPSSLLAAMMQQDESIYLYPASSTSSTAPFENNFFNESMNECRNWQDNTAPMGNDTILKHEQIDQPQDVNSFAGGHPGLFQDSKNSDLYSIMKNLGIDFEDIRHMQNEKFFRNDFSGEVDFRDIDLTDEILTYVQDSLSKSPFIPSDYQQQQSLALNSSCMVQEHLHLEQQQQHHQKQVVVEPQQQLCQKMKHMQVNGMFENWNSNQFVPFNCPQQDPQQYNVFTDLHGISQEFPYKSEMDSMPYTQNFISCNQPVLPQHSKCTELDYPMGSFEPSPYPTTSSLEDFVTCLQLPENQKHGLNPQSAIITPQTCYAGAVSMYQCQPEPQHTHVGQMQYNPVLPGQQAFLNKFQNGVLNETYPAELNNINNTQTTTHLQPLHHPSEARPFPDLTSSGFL

[28] = target: Disintegrin and metalloproteinase domain-containing protein 17 (Homo sapiens, UniProt P78536); test: exosite inhibitors of ADAM17, dose response, biochemical (AID 743260)
[29] = inhibition of ADAM10 peptide cleavage – biochemical, FRET peptide substrate, recombinant human ADAM10, selectivity assay for ADAM17 exosite inhibitor project, dose response (AID 743259);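 note: ADAM10 enzyme cleaving a FRET peptide substrate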
Vero = test: viability of Vero cells under compound – cytotoxicity control for flavivirus capping enzyme inhibitors (AID 588742); type: functional; conditions: Chlorocebus sabaeus
H9c2 = test: cells; type: functional, cell-based; conditions: Rattus norvegicus, H9c2, Myocardium;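 note: confirmatory concentration-response retest of ultra-high-throughput screening hits for modulation of myocardial damage; cell death induced by hydrogen peroxide oxidative stress; compound pretreatment for 60 min then peroxide exposure for 2 h; potency is for protecting the cells against peroxide damage rather than for killing them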

T1 sequence (O95136 whole entry): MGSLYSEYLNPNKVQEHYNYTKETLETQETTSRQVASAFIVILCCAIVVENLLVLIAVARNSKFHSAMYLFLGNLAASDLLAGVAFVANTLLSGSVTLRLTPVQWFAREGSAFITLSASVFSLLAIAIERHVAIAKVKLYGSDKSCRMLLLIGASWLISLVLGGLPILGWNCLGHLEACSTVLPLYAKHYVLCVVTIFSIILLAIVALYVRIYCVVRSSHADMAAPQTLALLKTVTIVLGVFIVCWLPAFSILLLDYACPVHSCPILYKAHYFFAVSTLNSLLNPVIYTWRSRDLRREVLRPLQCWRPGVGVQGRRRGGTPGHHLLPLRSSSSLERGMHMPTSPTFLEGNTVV
Sequence of NS3 (A3EZJ3 whole entry): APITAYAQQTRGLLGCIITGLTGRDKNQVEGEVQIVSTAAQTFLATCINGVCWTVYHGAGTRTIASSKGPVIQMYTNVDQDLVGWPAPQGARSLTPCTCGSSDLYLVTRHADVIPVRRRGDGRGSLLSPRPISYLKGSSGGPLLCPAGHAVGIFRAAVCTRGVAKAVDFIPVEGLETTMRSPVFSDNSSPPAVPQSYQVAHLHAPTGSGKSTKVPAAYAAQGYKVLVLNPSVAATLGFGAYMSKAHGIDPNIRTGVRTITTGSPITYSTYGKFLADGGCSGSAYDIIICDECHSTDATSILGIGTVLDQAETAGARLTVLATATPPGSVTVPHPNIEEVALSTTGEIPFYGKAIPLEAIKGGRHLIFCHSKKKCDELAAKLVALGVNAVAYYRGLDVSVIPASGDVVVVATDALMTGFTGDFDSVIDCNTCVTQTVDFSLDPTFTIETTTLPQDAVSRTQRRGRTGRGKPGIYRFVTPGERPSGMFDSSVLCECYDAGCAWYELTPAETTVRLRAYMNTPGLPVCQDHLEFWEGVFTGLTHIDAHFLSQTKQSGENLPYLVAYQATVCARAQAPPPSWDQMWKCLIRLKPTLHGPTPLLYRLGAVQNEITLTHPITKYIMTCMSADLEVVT
Sequence of Ephrin type-A receptor 4 (Q03137 whole entry): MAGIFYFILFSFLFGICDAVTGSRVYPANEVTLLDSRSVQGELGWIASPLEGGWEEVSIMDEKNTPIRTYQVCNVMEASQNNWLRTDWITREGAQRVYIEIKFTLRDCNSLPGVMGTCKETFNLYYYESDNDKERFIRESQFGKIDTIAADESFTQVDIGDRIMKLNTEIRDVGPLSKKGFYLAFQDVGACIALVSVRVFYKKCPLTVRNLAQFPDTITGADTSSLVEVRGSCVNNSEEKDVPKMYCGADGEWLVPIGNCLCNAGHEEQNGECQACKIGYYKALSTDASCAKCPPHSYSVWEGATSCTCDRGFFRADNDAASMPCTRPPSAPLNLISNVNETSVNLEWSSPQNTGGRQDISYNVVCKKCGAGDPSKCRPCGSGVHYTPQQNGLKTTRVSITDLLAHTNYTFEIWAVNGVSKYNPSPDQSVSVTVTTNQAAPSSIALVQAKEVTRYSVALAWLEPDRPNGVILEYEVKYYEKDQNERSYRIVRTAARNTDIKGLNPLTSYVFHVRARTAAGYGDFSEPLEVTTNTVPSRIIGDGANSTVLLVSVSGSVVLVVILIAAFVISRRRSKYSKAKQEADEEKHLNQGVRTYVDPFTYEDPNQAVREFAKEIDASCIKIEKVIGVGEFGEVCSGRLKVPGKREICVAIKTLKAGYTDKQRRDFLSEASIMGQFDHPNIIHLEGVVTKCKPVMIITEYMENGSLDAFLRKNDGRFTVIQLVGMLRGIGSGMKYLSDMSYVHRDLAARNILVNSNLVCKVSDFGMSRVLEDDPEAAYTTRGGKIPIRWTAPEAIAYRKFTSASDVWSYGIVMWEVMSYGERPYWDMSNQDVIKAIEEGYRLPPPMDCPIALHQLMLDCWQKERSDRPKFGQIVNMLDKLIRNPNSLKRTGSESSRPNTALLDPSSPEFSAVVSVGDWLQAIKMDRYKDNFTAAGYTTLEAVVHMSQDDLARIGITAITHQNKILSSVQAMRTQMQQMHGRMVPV
T2 sequence (P49327 whole entry): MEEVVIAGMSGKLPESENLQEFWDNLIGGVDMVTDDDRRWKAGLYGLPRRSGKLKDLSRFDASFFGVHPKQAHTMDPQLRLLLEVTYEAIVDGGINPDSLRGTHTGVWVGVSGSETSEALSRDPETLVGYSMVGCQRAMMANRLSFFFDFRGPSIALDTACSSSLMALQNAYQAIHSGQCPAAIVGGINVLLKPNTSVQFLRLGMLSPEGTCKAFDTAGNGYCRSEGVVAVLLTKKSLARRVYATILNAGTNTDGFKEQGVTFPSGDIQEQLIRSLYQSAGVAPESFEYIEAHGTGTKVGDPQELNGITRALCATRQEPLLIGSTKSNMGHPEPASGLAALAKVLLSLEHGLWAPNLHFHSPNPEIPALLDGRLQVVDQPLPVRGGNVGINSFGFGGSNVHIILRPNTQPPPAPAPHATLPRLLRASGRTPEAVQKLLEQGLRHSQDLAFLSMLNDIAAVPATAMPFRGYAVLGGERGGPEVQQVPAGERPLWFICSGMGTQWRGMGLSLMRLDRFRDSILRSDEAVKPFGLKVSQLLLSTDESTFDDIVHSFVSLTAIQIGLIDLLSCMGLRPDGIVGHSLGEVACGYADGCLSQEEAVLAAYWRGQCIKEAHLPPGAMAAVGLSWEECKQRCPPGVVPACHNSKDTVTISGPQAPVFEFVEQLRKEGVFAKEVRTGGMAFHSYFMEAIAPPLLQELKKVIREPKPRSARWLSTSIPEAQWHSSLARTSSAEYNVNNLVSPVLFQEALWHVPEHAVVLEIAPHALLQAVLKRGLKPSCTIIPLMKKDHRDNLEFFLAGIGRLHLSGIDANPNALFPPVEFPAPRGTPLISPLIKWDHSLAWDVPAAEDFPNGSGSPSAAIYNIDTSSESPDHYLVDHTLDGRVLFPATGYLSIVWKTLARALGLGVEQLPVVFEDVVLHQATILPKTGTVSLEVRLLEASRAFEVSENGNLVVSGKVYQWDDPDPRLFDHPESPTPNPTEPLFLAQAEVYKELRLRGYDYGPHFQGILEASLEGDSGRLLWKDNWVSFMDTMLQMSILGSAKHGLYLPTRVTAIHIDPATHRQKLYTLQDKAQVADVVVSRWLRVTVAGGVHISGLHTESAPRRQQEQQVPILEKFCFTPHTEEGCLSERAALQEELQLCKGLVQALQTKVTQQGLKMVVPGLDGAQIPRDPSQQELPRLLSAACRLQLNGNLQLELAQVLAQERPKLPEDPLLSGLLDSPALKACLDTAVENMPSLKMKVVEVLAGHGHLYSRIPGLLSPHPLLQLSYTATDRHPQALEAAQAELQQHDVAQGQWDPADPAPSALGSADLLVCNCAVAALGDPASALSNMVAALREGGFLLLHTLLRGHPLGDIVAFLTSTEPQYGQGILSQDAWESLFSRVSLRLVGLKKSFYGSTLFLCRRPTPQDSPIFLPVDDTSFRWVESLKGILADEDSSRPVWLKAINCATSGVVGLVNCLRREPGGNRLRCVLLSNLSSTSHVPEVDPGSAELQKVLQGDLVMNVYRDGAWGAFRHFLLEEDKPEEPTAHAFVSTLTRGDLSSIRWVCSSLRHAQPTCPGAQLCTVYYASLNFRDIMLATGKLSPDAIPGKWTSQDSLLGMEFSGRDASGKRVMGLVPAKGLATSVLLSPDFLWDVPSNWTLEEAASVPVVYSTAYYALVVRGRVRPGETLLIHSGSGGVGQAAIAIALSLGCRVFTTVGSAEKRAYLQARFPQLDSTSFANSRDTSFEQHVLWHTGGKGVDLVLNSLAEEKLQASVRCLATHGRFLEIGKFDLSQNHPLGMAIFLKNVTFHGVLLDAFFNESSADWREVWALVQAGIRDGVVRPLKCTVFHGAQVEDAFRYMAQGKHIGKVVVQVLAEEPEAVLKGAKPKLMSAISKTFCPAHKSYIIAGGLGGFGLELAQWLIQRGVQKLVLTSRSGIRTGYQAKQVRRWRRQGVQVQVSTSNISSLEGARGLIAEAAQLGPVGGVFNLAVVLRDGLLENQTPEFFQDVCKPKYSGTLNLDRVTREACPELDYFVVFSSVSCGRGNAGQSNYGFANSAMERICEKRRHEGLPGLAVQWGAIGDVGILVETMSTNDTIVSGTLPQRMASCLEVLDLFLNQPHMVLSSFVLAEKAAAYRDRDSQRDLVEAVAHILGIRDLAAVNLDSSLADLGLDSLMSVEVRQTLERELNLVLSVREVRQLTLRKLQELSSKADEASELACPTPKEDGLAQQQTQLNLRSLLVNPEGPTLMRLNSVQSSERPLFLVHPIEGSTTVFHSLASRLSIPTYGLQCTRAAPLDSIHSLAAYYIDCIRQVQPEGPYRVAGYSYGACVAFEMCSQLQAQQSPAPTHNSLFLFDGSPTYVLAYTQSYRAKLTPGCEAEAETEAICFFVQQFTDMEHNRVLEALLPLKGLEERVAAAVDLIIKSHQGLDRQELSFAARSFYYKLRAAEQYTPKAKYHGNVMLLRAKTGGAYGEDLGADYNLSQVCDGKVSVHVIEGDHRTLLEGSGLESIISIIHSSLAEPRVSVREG
Sequence of FAD-linked sulfhydryl oxidase ALR (P55789 whole entry): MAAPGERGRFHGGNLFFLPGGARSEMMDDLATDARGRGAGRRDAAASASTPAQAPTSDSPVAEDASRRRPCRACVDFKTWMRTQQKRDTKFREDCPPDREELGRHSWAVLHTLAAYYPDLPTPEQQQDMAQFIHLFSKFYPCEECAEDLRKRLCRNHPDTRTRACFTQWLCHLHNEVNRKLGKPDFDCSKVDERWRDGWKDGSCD

Cc1cc(C)c(S(=O)(=O)Nc2ccc(O)cc2)cc1C
AC50 [1]: 0.926 µM (active)
EC50 [2]: > 50 µM (not active)

COCCOC(=O)C1=C(C)NC(C)=C(C(=O)OC/C=C/c2ccccc2)C1c1cccc([N+](=O)[O-])c1 (stereo not given) [CILNIDIPINE]
IC50 [3]: > 10 µM (inactive)
IC50 [4]: > 10 µM (inactive)

CN(CCO)c1cc(NCCCN2CCC(Cc3ccccc3)CC2)c2nonc2c1[N+](=O)[O-]
EC50 [5]: > 60 µM (not active)
IC50 (Fatty acid synthase [6]): 12.2 µM (active)
IC50 (Fatty acid synthase [7]): 6.52 µM (active)
EC50 [8]: < 0.1 µM (active)
EC50 (cells): 0.215 µM (active)

CN1CCc2nc3sc(C#N)c(N)c3c(-c3cccs3)c2C1
EC50 [5]: > 60 µM (not active)
EC50 [8]: < 0.1 µM (active)
EC50 (cells): 0.06 µM (active)
AC50 [9]: 3.27 µM (active)

COC(=O)[C@H]1[C@H]2C[C@@H]3c4[nH]c5cc(OC)ccc5c4CCN3C[C@H]2C[C@@H](OC(=O)/C=C/c2ccc(O)c(OC)c2)[C@@H]1OC [RESCIMETOL]
IC50 [3]: > 10 µM (inactive)
IC50 [4]: > 10 µM (inactive)

COc1cc(CN2C[C@@H]3N[C@H](C2)[C@@H]3c2ccc(-c3ccncc3)cc2)cc(OC)c1
AC50 [10]: 1.92 µM (active)
AC50 [11]: 18.7 µM (active)
AC50 [12]: 2.53 µM (active)
AC50 [13]: 1.9 µM (active)
AC50 [14]: > 39 µM (inactive)
AC50 [15]: 2.11 µM (active)

N#C/C(=C/c1ccc(N2CCCCCC2)o1)c1ccc(F)cc1
EC50 [5]: 9.44 µM (active)
EC50 [16]: 13.6 µM (active)
EC50 (Streptokinase A): 16 µM (active)
EC50 [17]: 19.2 µM (active)
EC50 [8]: 3.49 µM (active)
IC50 [18]: 11.5 µM (not active)
EC50 [19]: 14.1 µM (active)
EC50 (Streptococcus): > 150 µM (not active)

Cc1cc2cc(C(c3nnnn3Cc3ccco3)N3CCc4ccccc4C3)c(O)nc2cc1C (stereo not given)
IC50 (NS3): > 109 µM (not active)

O/C(=C\c1nc2ccccc2nc1/C=C(\O)c1ccccc1)c1ccccc1
IC50 [20]: > 100 µM (active)

CCOC(=O)c1c(NC(=O)CSc2nc(C)cc(C)c2C#N)sc(C(C)=O)c1C
EC50 [21]: > 79.4 µM (not active)
EC50 [22]: > 79.4 µM (not active)
EC50 [23]: > 79.4 µM (not active)

CCCc1nn(-c2cc(Cl)ccc2OC)c2c1C(=O)CCC2
EC50 [2]: > 50 µM (not active)

Cc1ccc2[nH]c3c(N4CCCCCC4)ncnc3c2c1
IC50 [18]: 3.44 µM (active)

O=C(CCSc1ccc(Cl)cc1)c1cccs1
IC50 [20]: > 100 µM (active)

CCCn1nc(-c2ccccc2)c2nc3ccccc3nc21
EC50 [24]: 61.7 µM (inactive)
IC50 (Ephrin type-A receptor 4): 10.3 µM (active)
EC50 [25]: 5.23 µM (active)
EC50 [26]: > 99 µM (inactive)

Cc1ccc(-c2ccc3c(c2)O[C@H](CN(C)Cc2ccncc2)[C@@H](C)CN([C@H](C)CO)S3(=O)=O)cc1
AC50 [14]: 22.1 µM (active)
AC50 [15]: 5.12 µM (active)

Cc1csc(NC(=O)CSc2ccc3nnc(-c4ccncc4)n3n2)n1
EC50 [27]: 12 µM (not active)

CCOc1ccc(/C=C/C(=O)c2cc(Br)ccc(=O)c2O)cc1
IC50 (NS3): 4.35 µM (active)
IC50 [28]: 11.4 µM (inactive)
IC50 [29]: 17.6 µM (inactive)
CC50 (Vero): 7 µM (active)
IC50 (H9c2): 6.72 µM (active)

COc1ccc(/C=c2\sc3nc(-c4ccccc4)c(-c4ccccc4)n3c2=O)cc1OC
IC50 (Ephrin type-A receptor 4): 8.12 µM (active)
